# According to the supplement of paper PMC10307832:
# Assays:
# Assay in all cases: relative viability (nuclei count vs DMSO), 5 days (fraction); higher = more cells survive
# AZ628 + Tozasertib = compound: CC1=C(C=C(C=C1)NC(=O)C2=CC(=CC=C2)C(C)(C)C#N)NC3=CC4=C(C=C3)N=CN(C4=O)C [AZ628] + Cc1cc(Nc2cc(N3CCN(C)CC3)nc(Sc3ccc(NC(=O)C4CC4)cc3)n2)n[nH]1 [Tozasertib] (partner 0.1 µM)
# Summary of the method: (§1)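 Relative viability is defined as nuclei in treated wells over nuclei in vehicle wells. Duplicate plates were run and medians reported. Lung cancer cell lines in 1536-well plates were dosed by pin tool one day after seeding, with one drug or with a fixed anchor-drug dose plus five library-drug doses (not always all listed) in √10 steps, and nuclei were counted after 5 days.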
# AZ628 + Luminespib = compound: CC1=C(C=C(C=C1)NC(=O)C2=CC(=CC=C2)C(C)(C)C#N)NC3=CC4=C(C=C3)N=CN(C4=O)C [AZ628] + CCNC(=O)c1noc(-c2cc(C(C)C)c(O)cc2O)c1-c1ccc(CN2CCOCC2)cc1 [Luminespib] (partner 0.01 µM)
# Summary of the method: as §1
# Darinaparsin + AZD7762 = compound: C[As](C)SC[C@H](NC(=O)CC[C@H](N)C(=O)O)C(=O)NCC(=O)O [Darinaparsin] + NC(=O)Nc1cc(-c2cccc(F)c2)sc1C(=O)N[C@H]1CCCNC1 [AZD7762] (partner 0.2 µM)
# Summary of the method: as §1
# QS11 + Tozasertib = compound: C1CC2=C(C1)C=C(C=C2)OC3=NC(=C4C(=N3)N(C=N4)CC5=CC=C(C=C5)C6=CC=CC=C6)N[C@@H](CC7=CC=CC=C7)CO [QS11] + Cc1cc(Nc2cc(N3CCN(C)CC3)nc(Sc3ccc(NC(=O)C4CC4)cc3)n2)n[nH]1 [Tozasertib] (partner 0.1 µM)
# Summary of the method: as §1
Cell Line,relative viability (AZ628 + Tozasertib; first compound 0.08 µM),relative viability (AZ628 + Tozasertib; first compound 0.253 µM),relative viability (AZ628 + Tozasertib; first compound 0.8 µM),relative viability (AZ628 + Tozasertib; first compound 2.53 µM),relative viability (AZ628 + Tozasertib; first compound 8 µM),relative viability (AZ628 + Luminespib; first compound 0.08 µM),relative viability (AZ628 + Luminespib; first compound 0.253 µM),relative viability (AZ628 + Luminespib; first compound 0.8 µM),relative viability (AZ628 + Luminespib; first compound 2.53 µM),relative viability (AZ628 + Luminespib; first compound 8 µM),relative viability (Darinaparsin + AZD7762; first compound 0.08 µM),relative viability (Darinaparsin + AZD7762; first compound 0.8 µM),relative viability (Darinaparsin + AZD7762; first compound 2.53 µM),relative viability (Darinaparsin + AZD7762; first compound 8 µM),relative viability (QS11 + Tozasertib; first compound 0.08 µM),relative viability (QS11 + Tozasertib; first compound 0.253 µM),relative viability (QS11 + Tozasertib; first compound 0.8 µM),relative viability (QS11 + Tozasertib; first compound 2.53 µM),relative viability (QS11 + Tozasertib; first compound 8 µM)
PC-3 [JPC-3],0.909,0.909,0.926,0.91,0.798,0.628,0.67,0.866,0.675,0.71,0.972,0.807,0.668,0.85,0.881,0.939,0.857,0.972,0.764
PC-14,0.502,0.526,0.612,0.564,0.44,0.197,0.132,0.146,0.167,0.202,0.481,0.361,0.422,0.379,0.552,0.575,0.487,0.652,0.602
RERF-LC-KJ,0.506,0.526,0.452,0.493,0.307,1.21,1.23,1.43,1.08,1.19,0.92,0.989,0.865,1.19,0.521,0.429,0.42,0.274,0.274
SW 900,0.7,0.549,0.553,0.496,0.232,0.18,0.188,0.156,0.152,0.176,0.644,,0.549,0.6,0.573,0.479,0.521,0.408,0.296
